#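 GI50 is the concentration that inhibits growth by half. TGI is the concentration that stops growth completely.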
# Columns and labels:
# Assay in all cases: DTP human tumour cell line panel, 384-well format
# UACC-62 melanoma = system: UACC-62 melanoma
# SK-MEL-28 melanoma = system: SK-MEL-28 melanoma
# SF-295 CNS = system: SF-295 CNS
# PC-3 prostate = system: PC-3 prostate
# SF-539 CNS = system: SF-539 CNS
# KM12 colon = system: KM12 colon
# SW-620 colon = system: SW-620 colon
# MDA-MB-468 breast = system: MDA-MB-468 breast
# BT-549 breast = system: BT-549 breast
# HS 578T breast = system: HS 578T breast
# A498 renal = system: A498 renal
# OVCAR-8 ovarian = system: OVCAR-8 ovarian
# SR leukemia = system: SR leukemia
structure (smiles),measurement,setting,value
Cc1cc(Nc2cc(N)ncn2)c(=O)n2c1C(=O)NC21CCCCC1,GI50,UACC-62 melanoma,> 100 µM
same,TGI,UACC-62 melanoma,> 100 µM
same,GI50,SK-MEL-28 melanoma,> 100 µM
same,TGI,SK-MEL-28 melanoma,> 100 µM
same,GI50,SF-295 CNS,> 100 µM
same,TGI,SF-295 CNS,> 100 µM
same,GI50,PC-3 prostate,> 100 µM
same,TGI,PC-3 prostate,> 100 µM
same,GI50,SF-539 CNS,> 100 µM
same,TGI,SF-539 CNS,> 100 µM
same,GI50,KM12 colon,> 100 µM
same,TGI,KM12 colon,> 100 µM
same,GI50,SW-620 colon,> 100 µM
same,TGI,SW-620 colon,> 100 µM
same,GI50,MDA-MB-468 breast,> 100 µM
same,TGI,MDA-MB-468 breast,> 100 µM
same,GI50,BT-549 breast,> 76.9 µM
same,TGI,BT-549 breast,> 100 µM
same,GI50,HS 578T breast,> 100 µM
same,TGI,HS 578T breast,> 100 µM
same,GI50,A498 renal,> 100 µM
same,TGI,A498 renal,> 100 µM
same,GI50,OVCAR-8 ovarian,> 100 µM
same,TGI,OVCAR-8 ovarian,> 100 µM
same,GI50,SR leukemia,> 69.7 µM
same,TGI,SR leukemia,> 100 µM
